Test results reported in patent US12421257B2, “Compositions and methods for inhibiting group II intron RNA” (YALE UNIVERSITY, priority 2018, dated 2025).
In brackets after ≈: the same amount, converted by molar mass. Like-named read-outs stand apart in the source and are kept apart here.

Tests used:
[1] = molecular target: ai5γ group II intron; experiment: Radioanalytic self-splicing assay of SE RNA (Ki); format: biochemical, Saccharomyces cerevisiae; conditions: 8 mM MgCl2, 100 mM KCl, pH 7.5, 30° C.
Method in brief: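 Internally labeled SE RNA (2 nM) self-spliced with varying inhibitor in 50 mM MOPS pH 7.5, 8 mM MgCl2, 100 mM KCl at 30° C; time points resolved on 5% denaturing PAGE. kobs from single-exponential fits, Ki from non-competitive model kobs=kmax/(1+[I]/Ki); mean±s.e.m. of 2–4 runs.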

[2] = tested on: ai5γ group II intron (D135 ribozyme); experiment: Fluorescent D135 ribozyme cleavage assay (IC50); format: biochemical, Saccharomyces cerevisiae; conditions: for IC50: D135 ribozyme cleavage of substrate 17/2 DL, 100 mM MgCl2, 500 mM KCl, 37° C., 10 minutes; for In vitro inhibitory activity, SAR statement (in words): relative to parent scaffold
Method in brief: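 D135 ribozyme (20 nM) with double-labeled substrate 17/2 DL (20 nM) in 50 mM MOPS pH 7.0, 100 mM MgCl2, 0.5 M KCl; 19 inhibitor concentrations, 5 nM–1 mM, 10 min at 37 °C, EDTA quench, fluorescence read. Triplicates fit to 4-parameter logistic for IC50; mean±s.e.m.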

[3] = tested on: S. cerevisiae; experiment: Yeast respiration assay in S. cerevisiae (MIC in YPD / YPGE); format: cell-based, Saccharomyces cerevisiae; conditions: Saccharomyces cerevisiae, 30° C.
Protocol: Yeast respiration assays were conducted either in liquid YPD media (BD Bacto Yeast Extract, BD Bacto Peptone, 2% glucose) or in YPGE media (BD Bacto Yeast Extract, BD Bacto Peptone, 3% glycerol, 3% ethanol), essentially as described for the antifungal MIC assays (see below). To initiate these experiments, 100 μl of a fresh stock solution was prepared for each compound (3.2 mg/ml for Amphotericin B and 12.8 mg/ml for each test compounds) in DMSO. This concentrated stock solution was placed in the first well of 12-well row on a 96-well plate. The subsequent nine wells in this row contained 50 μl of DMSO for serial dilution. From the first well, 50 μl of the compound stock was withdrawn, transferred to the second well and mixed. This process was repeated from the second and subsequent wells, resulting in a 1:2 serial dilution of the stock into DMSO. Wells 11 and 12 contained DMSO only, to be used as no compound control and sterility control, with no inoculum added, respectively. After preparing this plate, 2.5 μl from each of the 12 wells was transferred to the wells of a separate 96-well plate, each of which contained 122.5 μl of YPD or YPGE medium, resulting in a set of serial dilutions of compound into growth media in a volume of 125 μl. Then 50 μl from each of these dilutions were transferred onto a third 96-well plate (the assay plate) and mixed with an equal volume (50 μl) of freshly prepared yeast inoculum in YPD or YPGE medium set to provide 0.5×10^3 to 2.5×10^3 colony forming units per 1 mL (wells 1-11), or YPD/YPGE alone (sterility control, well 12). The final compound concentration range of the assay was 0.25-128 μg/ml for test compounds and 0.0625-32 μg/ml for Amphotericin B. The final concentration of DMSO was 1%. Plates were incubated at 30° C. and visually analyzed for turbidity after 24 and 48 hours of incubation. The lowest compound concentration at which no growth was apparent is reported as the MIC (Table 1). All experiments were performed in triplicate.

[4] = YPD medium, read-out: MIC in YPD (glucose)
[5] = YPGE medium, read-out: MIC in YPGE (glycerol)

Structure (SMILES)	Ki [1] [µM]	IC50 [2] [µM]	In vitro inhibitory activity, SAR statement (in words) [2]	MIC [3, 4] [µg/mL]	MIC [3, 5] [µg/mL]
O=C1/C(=C/c2cc(O)cc(O)c2)Oc2cc(O)cc(O)c21 [APY-014, (Z)-2-(3,5-Dihydroxybenzylidene)-4,6-dihydroxybenzofuran-3(2H)-one]	251 ± 31	266 ± 37	nearly complete loss of activity	> 128	> 128
Cc1ccncc1-c1ccc2oc(C(=O)c3cc(O)c(O)c(O)c3)cc2c1 [APY-081, 5-{[5-(4-Methylpyridin-3-yl)-1-benzofuran-2-yl]carbonyl}benzene-1,2,3-triol]	5.3 ± 0.2	6.8 ± 1.1	–	> 128	32 (≈ 88.6 µM)
O=C(c1cc(O)c(O)c(O)c1)c1cc2cc(-c3ccc(CO)cc3)ccc2o1 [APY-084, 5-({5-[4-(Hydroxymethyl)phenyl]-1-benzofuran-2-yl}carbonyl)benzene-1,2,3-triol]	1.3 ± 0.4	0.9 ± 0.1	–	> 128	16 to 32 (≈ 42.5 to 85 µM)
Br.CCN(CC)Cc1ccc(-c2ccc3oc(C(=O)c4cc(O)c(O)c(O)c4)cc3c2)cc1 [APY-090, 5-[(5-{4-[(Diethylamino)methyl]phenyl}-1-benzofuran-2-yl)carbonyl]benzene-1,2,3-triol hydrobromide]	0.37 ± 0.04	2.1 ± 0.4	–	> 128	64
CCCCNS(=O)(=O)c1ccc(-c2ccc(-c3nc(-c4cc(O)c(O)c(O)c4)cs3)cc2)cc1 [APY-093, N-Butyl-4-{4-[4-(3,4,5-trihydroxyphenyl)-1,3-thiazol-2-yl]phenyl}benzene-1-sulfonamide]	53 ± 5	86 ± 3	substantial loss of activity	> 128	> 128
CC(=O)c1ccc(-c2ccc3oc(C(=O)c4cc(O)c(O)c(O)c4)cc3c2)cc1 [APY-101, 1-(4-{2-[(3,4,5-Trihydroxyphenyl)carbonyl]-1-benzofuran-5-yl}phenyl)ethan-1-one]	2.1 ± 0.2	1.5 ± 0.1	–	> 128	32 (≈ 82.4 µM)
